# Assay results from patent publication US8722364B2, “Method for increasing microbial catalase production” (Jiangnan University, priority 2011, dated 2014).
# Assays:
# [1] = tested on: catalase; assay: Storage stability of unpurified fermentation broth (remaining extracellular catalase activity); parameters: species or system Bacillus sp. WSHDZ-01
# Procedure: (§1) Catalase activity was measured using the method described by Aebi (Aebi HE. Catalase in vitro. Method Enzymol 1984; 105:121-6). Total reaction volume is 3 ml. 0.1 ml enzyme solution was added to 2.9 ml KH2PO4—K2HPO4 buffer (pH 7.0, 10 mM KH2PO4/50 mM K2HPO4, 0.45 g/L H2O2). Decomposition rate of H2O2 was measured at 240 nm using a UV-Vis spectrophotometer. One unit of catalase activity is defined as the amount of enzyme that decomposes 1 μmol H2O2 per min at pH 7.0, 25° C.
# The culturing of Bacillus sp. WSHDZ-01 was performed as described under control procedure with one modification, that is, 5 g/L sodium hexametaphosphate was added at 36 hours of fermentation.
# After fermentation, unpurified fermentation broth was stored at 25° C. for 12 hours. […] The broth storage stability was improved by 28.3% under the procedure with sodium hexametaphosphate.
# [2] = tested on: Bacillus sp. WSHDZ-01; assay: Fermentation of Bacillus sp. WSHDZ-01 with sodium hexametaphosphate added; extracellular catalase activity of the broth by catalase assay (Aebi); type: cell-based
# Procedure: (§2) Fermentation Culture: the fermentation process was performed in a 3 liter (L) stirred fermenter (KFT-3L, Korea) with a working volume of 1.8 L. Above 12-h-old basic flask culture was added at a concentration of 5.0% (v/v) to 1.8 L fermentation medium, and incubated under a stepwise temperature control, in which the temperature was maintained at 37° C. for the first 10 hours, at 35° C. during 10-20 hours, and at 32° C. after 20 hours. The aeration rate was 1.0 (v/v/m) (volume of air per volume of culture per minute). The shaking speed was 400 rpm. The total fermentation period was 48 to 53 hours. Proteinase inhibitors can be added during this fermentation process as described below.
# as §1
# Bacillus sp. WSHDZ-01 with accession number CCTCC NO. M206062 was used to produce catalase. Bacillus sp. WSHDZ-01 grown on a slant culture was inoculated into 50 ml of liquid seed medium in a 250 ml culture flask and cultured at 37° C., 200 rpm for 12-14 hours. 6% above liquid seed culture (v/v) was added to 80 ml basic fermentation culture in a 500 ml culture flask, and incubate at 37° C., 200 rpm, for 36-40 hours.
# as §2, with “the” for “Fermentation Culture: the”, “L” for “liter (L)”, “The” for “Above”, “hours.” for “hours. Proteinase inhibitors can be added during this fermentation process as described below.”
# [3] = 1 g/L added at 30 hours of fermentation
# [4] = 3 g/L added at 36 hours of fermentation
# [5] = 5 g/L added at 36 hours of fermentation
# [6] = 7 g/L added at 36 hours of fermentation
# [7] = 10 g/L added at 40 hours of fermentation
compound,measurement,setting,value
O=P1([O-])OP(=O)([O-])OP(=O)([O-])OP(=O)([O-])OP(=O)([O-])OP(=O)([O-])O1.[Na+].[Na+].[Na+].[Na+].[Na+].[Na+] [sodium hexametaphosphate],percentage of remaining extracellular catalase activity of the stored fermentation broth,"[1]; 5 g/L added at 36 hours of fermentation, unpurified broth stored at 25° C. for 12 hours",84.4%
same,broth storage stability improved,"[1]; 5 g/L added at 36 hours, stored at 25° C. for 12 hours, versus control culture procedure (56.1%)",28.3%
same,Extracellular catalase activity of the fermentation broth,[2]; [3],15700 U/mL
same,increase of enzyme activity from that of the control procedure,[2]; [3],16.3%
same,Extracellular catalase activity of the fermentation broth,[2]; [4],18600 U/mL
same,increase of enzyme activity from that of the control procedure,[2]; [4],37.7%
same,Extracellular catalase activity of the fermentation broth,[2]; [5],19200 U/mL
same,increase of enzyme activity from that of the control procedure,[2]; [5],42.2%
same,Extracellular catalase activity of the fermentation broth,[2]; [6],19700 U/mL
same,increase of enzyme activity from that of the control procedure,[2]; [6],45.9%
same,Extracellular catalase activity of the fermentation broth,[2]; [7],16900 U/mL
same,increase of enzyme activity from that of the control procedure,[2]; [7],25.2%
